Five molecules from patent US20200063169A1, “METHODS AND COMPOSITIONS FOR THE PRODUCTION OF LIPIDS” (THE UNIVERSITY OF BRITISH COLUMBIA, priority 2017, published 2020) can be followed below.

Assay [1] has as its system FcrA. As to the kind of experiment: FcrA activity assays (spectrophotometric, NADPH oxidation / DTNB). The format is biochemical, Rhodococcus jostii RHA1. The following applies: for Specific Activity: 5 μM acyl-CoA, 200 μM NADPH, pH 7.0, 25° C. On the procedure: FcrA activity was evaluated using two spectrophotometric assays. Assays were performed at 25° C. in 1 mL 20 mM MOPS, 80 mM NaCl, pH 7.0 (I=0.1 M) containing 5 μM acyl-CoA and 200 μM NADPH. Reactions were initiated by the addition of FcrA to a final concentration of 0.5 to 2 μM. In one assay, the oxidation of NADPH was followed at 340 nm (E=6.3 mM mM^−1 cm^−1 [43]). In the second assay, the reaction mixture also contained 0.1 mg/mL DTNB, and the formation of NTB^2− was followed at 412 nm (E=14.15 mM^−1 cm^−1 for NTB^2−[44]). Reaction rates were calculated from progress curves using Cary WinUV Kinetics Application (Agilent). The pH-dependence of the reaction was evaluated using the DTNB assay and a series of 20 mM Good's buffers (MES, MOPS, HEPPS, or TAPS), 80 mM NaCl (I=0.1 M), pH 6 to 9.
Because related two-domain enzymes completely reduce acyl-CoAs to fatty alcohols and have been used in biotechnology applications, further efforts were focused on exploring the function of FcrA, To investigate the activity of FcrA, it was first produced as a C-terminally His-tagged protein in RHA1 and purified to greater than 95% apparent homogeneity (FIG. 4A). The molecular mass of FcrA-His6 was 73627 Da, which corresponds to the mass of the protein (73758 Da) less the N-terminal methionine (131 Da). Then, to evaluate the ability of FcrA to catalyze the formation of fatty alcohols, 1.4 μM FcrA was incubated with 400 μM NADPH and 100 μM oleoyl-CoA in 1 mL 20 mM Tris-HCl, pH 7.0, 50 mM NaCl for 20 h at room temperature. The reaction was quenched with 1 mL saturated NaCl and 100 μM of tetradecanol was added as a standard. […] No alcohol was detected in control reactions in which FcrA was omitted. […] As with previously characterized FARs, activity was maximal at pH 7.0. […] Among the tested substrates, FcrA had highest specific activity for stearoyl-CoA (C18-CoA), reducing it at a rate of 45±3 nmol/mg·min. The specific activity of FcrA dropped off with decreasing chain length of the acyl-CoA substrate (Table 2).

Assay [2] has as its system FcrA. As to the kind of experiment: FcrA fatty alcohol formation, reaction products analysed by GC/MS. The format is biochemical, Rhodococcus jostii RHA1. The settings on record: 1.4 μM FcrA, 400 μM NADPH, 100 μM oleoyl-CoA, pH 7.0, 20 h, room temperature. As to the method: To analyze fatty alcohols produced in vitro, quenched reactions of 2 mL were extracted with 5 mL of 2:1 chloroform:methanol (v/v). The organic phase was collected, washed once with 1:1 H2O:methanol, and three times with H2O. The organic phase was removed and dried under nitrogen stream. The extract was suspended in pyridine and derivatized with […] for 1 h at 60° C. Derivatized extracts were analyzed by gas chromatography-mass spectrometry (GC/MS) as described below.
Analyses were performed using an Agilent 6890n gas chromatograph system fitted with an HP-5 MS 30 m×0.25 mm capillary column (Hewlett-Packard) and an Agilent 5973n mass-selective detector. […] WEs were further identified by comparison to an authentic stearyl stearate standard and were quantified using a standard curve generated using palmityl myristate (Nu-Chek Prep).
Because related two-domain enzymes completely reduce acyl-CoAs to fatty alcohols and have been used in biotechnology applications, further efforts were focused on exploring the function of FcrA, To investigate the activity of FcrA, it was first produced as a C-terminally His-tagged protein in RHA1 and purified to greater than 95% apparent homogeneity (FIG. 4A). […] No alcohol was detected in control reactions in which FcrA was omitted. […]

Take `CCCCCCCCCCCC(=O)SCCNC(=O)CCNC(=O)[C@H](O)C(C)(C)COP(=O)(O)OP(=O)(O)OC[C@H]1O[C@@H](n2cnc3c(N)ncnc32)[C@H](O)[C@@H]1OP(=O)(O)O` [Lauroyl-CoA]: in the assay on FcrA [1] (FcrA with acyl-CoA substrate), the “Specific Activity” value is 1.5 ± 0.3 nmol/min/(mg protein). On to `NC(=O)C1=CN([C@@H]2O[C@H](COP(=O)(O)OP(=O)(O)OC[C@H]3O[C@@H](n4cnc5c(N)ncnc54)[C@H](O)[C@@H]3O)[C@@H](O)[C@H]2O)C=CC1` [NADH], for which the “FcrA activity with cofactor in place of NADPH” value with FcrA [1] (NADPH substituted with NADH) is “no activity was detected”. For the molecule `CCCCCCCC/C=C\CCCCCCCC(=O)SCCNC(=O)CCNC(=O)[C@H](O)C(C)(C)COP(=O)(O)OP(=O)(O)OC[C@H]1O[C@@H](n2cnc3c(N)ncnc32)[C@H](O)[C@@H]1OP(=O)(O)O` [Oleoyl-CoA], the “Specific Activity” value with FcrA [1] (FcrA with acyl-CoA substrate) is reported as 41 ± 1 nmol/min/(mg protein). In addition, the “rate of reduction by FcrA compared with stearoyl-CoA” value with FcrA [1] (monounsaturated acyl-CoA substrate) is “reduced at a similar rate to stearoyl-CoA”. In the assay with FcrA [2], the “conversion of acyl-CoA to fatty alcohol by FcrA” value is given as “converted oleoyl-CoA to oleyl alcohol”.

For the molecule `CCCCCCCCCCCCCCCC(=O)SCCNC(=O)CCNC(=O)[C@H](O)C(C)(C)COP(=O)(O)OP(=O)(O)OC[C@H]1O[C@@H](n2cnc3c(N)ncnc32)[C@H](O)[C@@H]1OP(=O)(O)O` [Palmitoyl-CoA], the “Specific Activity” value with FcrA [1] (FcrA with acyl-CoA substrate) was 7.0 ± 0.1 nmol/min/(mg protein).

On to `CCCCCCCCCCCCCCCCCC(=O)SCCNC(=O)CCNC(=O)[C@H](O)C(C)(C)COP(=O)(O)OP(=O)(O)OC[C@H]1O[C@@H](n2cnc3c(N)ncnc32)[C@H](O)[C@@H]1OP(=O)(O)O` [Stearoyl-CoA], for which, in the assay on FcrA [1] (FcrA with acyl-CoA substrate), the “specific activity (rate of reduction by FcrA)” value was 45 ± 3 nmol/mg/min and the “Specific Activity” value is on record as 45 ± 3 nmol/min/(mg protein).
